How the values were obtained:
[1] = target: T1, CLsoDHDPS (dihydrodipicolinate synthase) (Candidatus Liberibacter solanacearum, UniProt A0A0F4VK59); format: binding
T1 construct: gene dapA

[2] = target: T1, CLsoDHDPS (dihydrodipicolinate synthase); experiment: biochemical
[3] = target: T1, CLsoDHDPS (dihydrodipicolinate synthase); experiment: biochemical; remark: listed apart in the source
N[C@@H](CC=O)C(=O)O = experiment: purified protein

T1 sequence (A0A0F4VK59 1-296): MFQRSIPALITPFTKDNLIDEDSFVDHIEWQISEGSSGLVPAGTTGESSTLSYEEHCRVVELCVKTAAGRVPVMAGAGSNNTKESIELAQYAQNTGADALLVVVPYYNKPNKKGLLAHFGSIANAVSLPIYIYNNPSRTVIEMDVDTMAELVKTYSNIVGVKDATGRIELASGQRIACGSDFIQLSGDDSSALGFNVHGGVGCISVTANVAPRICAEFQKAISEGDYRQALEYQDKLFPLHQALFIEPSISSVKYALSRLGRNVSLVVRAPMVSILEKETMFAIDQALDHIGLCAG

O=CCCC(=O)O [SSA, succinic semi‐aldehyde]
X-ray crystal structure (1.93 Å) with pyruvate [1]: continuous density between Lys162, pyruvate, and succinic semi‐aldehyde such that the carbon–carbon bond between these substrates has formed

NCCCC[C@H](N)C(=O)O [lysine]
Ki [2]: 121 ± 5 µM

CC(=O)C(=O)O [pyruvate]
Kd [3]: 2 ± 0.7 µM

CLsoDHDPS (dihydrodipicolinate synthase) (Candidatus Liberibacter solanacearum)
Km (N[C@@H](CC=O)C(=O)O): 33 ± 3 µM | kcat (N[C@@H](CC=O)C(=O)O): 6 ± 0.2 s⁻¹ | kcat/Km (N[C@@H](CC=O)C(=O)O): 180000 M⁻¹ s⁻¹
